# Legend:
# Fusarium culmorum = test: microbe, parasite or virus in culture; assay type: cell-based; settings: read-out: control of Fusarium culmorum (inhibition of growth, photometric)
# [1] = system: Mycosphaerella arachidis (Cercospora arachidicola); test: Mycosphaerella arachidis (Cercospora arachidicola) / liquid culture (early leaf spot); assay type: cell-based; settings: PDB, 24° C., 4-5 days after application, read-out: control of Mycosphaerella arachidis (inhibition of growth, photometric)
# How it was run: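 Conidia suspended in potato dextrose broth and added to test compound from DMSO solution at 200 ppm. Incubated at 24 °C; growth inhibition read photometrically 4-5 days after application.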
# Sclerotinia sclerotiorum = Sclerotinia sclerotiorum liquid culture (cottony rot / white mold); assay type: cell-based; settings: PDB, 24° C., 3-4 days after application, read-out: control of Sclerotinia sclerotiorum (inhibition of growth, photometric)
# How it was run: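 Mycelia fragments of Sclerotinia sclerotiorum in potato dextrose broth were added to compound in DMSO. Cultures incubated at 24° C; growth inhibition determined photometrically 3-4 days after application.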
# [2] = system: Botryotinia fuckeliana (Botrytis cinerea); test: Botryotinia fuckeliana (Botrytis cinerea) / liquid culture (gray mould); assay type: cell-based; settings: Vogels broth, 24° C., 3-4 days after application, read-out: control of Botryotinia fuckeliana (inhibition of growth, photometric)
# How it was run: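 Test compound was applied at 200 ppm in DMSO, then Vogels nutrient broth containing cryo-stored B. cinerea conidia was added. Photometric growth-inhibition reading followed after 3-4 days at 24 °C.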
# Gaeumannomyces graminis = Gaeumannomyces graminis / liquid culture (take-all of cereals); assay type: cell-based; settings: PDB, 24° C., 4-5 days after application, read-out: control of Gaeumannomyces graminis (inhibition of growth, photometric)
# How it was run: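 Growth inhibition, measured by photometry 4-5 days post-application at 24 °C, of fungal mycelial fragments in PDB broth. Test compound applied as DMSO solution at 200 ppm.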
# [3] = system: Phaeosphaeria nodorum (Septoria nodorum); test: Phaeosphaeria nodorum (Septoria nodorum) / wheat / leaf disc preventative (glume blotch); assay type: in vivo; settings: Parastagonospora nodorum, foliar, wheat leaf segments cv Kanzler, inoculated 2 days after application, assessed 5-7 days after application, read-out: control of Phaeosphaeria nodorum (percent disease control compared to untreated)
# How it was run: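 Wheat leaf segments (cv Kanzler) on agar sprayed with compound at 200 ppm, inoculated with spores 2 days later. Incubated at 20° C., 75% relative humidity, 12/12 h light/dark; percent disease control versus untreated scored 5-7 days after application.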
# [4] = system: Glomerella lagenarium (Colletotrichum lagenarium); test: Glomerella lagenarium (Colletotrichum lagenarium) / liquid culture (anthracnose); assay type: cell-based; settings: Colletotrichum orbiculare, PDB, 24° C., 3-4 days after application, read-out: control of Glomerella lagenarium (inhibition of growth, photometric)
# How it was run: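 Test compound, delivered in DMSO at an application rate of 200 ppm, was combined with spore-containing PDB. Photometric growth-inhibition measurement followed 3-4 days of incubation at 24° C.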
# [5] = system: Monographella nivalis (Microdochium nivale); test: Monographella nivalis (Microdochium nivale) / liquid culture (foot rot cereals); assay type: cell-based; settings: PDB, 24° C., 4-5 days after application, read-out: control of Monographella nivalis (inhibition of growth, photometric)
# How it was run: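 Cryostored conidia in potato dextrose broth were added to test compound dispensed from DMSO at 200 ppm. Plates were kept at 24° C, and growth inhibition was read photometrically 4-5 days after application.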
# [6] = system: Puccinia recondita f. sp. Tritici; test: Puccinia recondita f. sp. tritici / wheat / leaf disc preventative (brown rust); assay type: in vivo; settings: foliar, wheat leaf segments cv Kanzler, inoculated 1 day after application, assessed 7-9 days after application, read-out: control of Puccinia recondita f. sp. Tritici (percent disease control compared to untreated)
# How it was run: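 Preventative test: percent disease control relative to untreated leaf segments was assessed 7-9 days post-application. Wheat (cv Kanzler) leaf discs were treated at 200 ppm and spore-inoculated 1 day afterwards. Discs were held at 19° C and 75% relative humidity under a 12/12 h light cycle.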
# [7] = system: Thanatephorus cucumeris (Rhizoctonia solani); test: Thanatephorus cucumeris (Rhizoctonia solani) / liquid culture (foot rot, damping-off); assay type: cell-based; settings: PDB, 24° C., 3-4 days after application, read-out: control of Thanatephorus cucumeris (inhibition of growth, photometric)
# How it was run: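 At 200 ppm, compounds in DMSO were combined with fresh liquid-culture mycelia in PDB and kept at 24° C; photometric measurement of growth inhibition after 3-4 days.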
# Pyrenophora teres = Pyrenophora teres / barley / leaf disc preventative (net blotch); assay type: in vivo; settings: foliar, barley leaf segments cv Hasso, inoculated two days after application, assessed 5-7 days after application, read-out: control of Pyrenophora teres (disease control compared to untreated)
# How it was run: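 Preventative leaf-disc test: 200 ppm spray, then spore inoculation after two days on barley cv Hasso segments. Incubation 20 °C, 65% relative humidity, 12 h light/12 h dark; efficacy rated against untreated checks at 5-7 days post-application.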
# [8] = system: Mycosphaerella graminicola (Septoria tritici); test: Mycosphaerella graminicola (Septoria tritici) / liquid culture (Septoria blotch); assay type: cell-based; settings: Zymoseptoria tritici, PDB, 24° C., 4-5 days after application, read-out: control of Mycosphaerella graminicola (inhibition of growth, photometric)
# How it was run: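 Growth inhibition was read photometrically after 4–5 days at 24 °C. The test compound was applied at 200 ppm from DMSO solution, then PDB broth seeded with conidia taken straight from cryogenic storage was added.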
# Pythium ultimum = Pythium ultimum / liquid culture (seedling damping off); assay type: cell-based; settings: Globisporangium ultimum, potato dextrose broth, 24° C., 2-3 days after application, read-out: control of Pythium ultimum (inhibition of growth, photometric)
# Experimental: Pythium ultimum/Liquid Culture (Seedling Damping Off) Mycelia fragments and oospores of a newly grown liquid culture of the fungus were directly mixed into nutrient broth (potato dextrose broth). After placing a DMSO solution of test compound into a 96-well format microtiter plate at an application rate of 200 ppm, the nutrient broth containing the fungal mycelia/spore mixture was added. The test plates were incubated at 24° C. and the inhibition of growth was determined photometrically 2-3 days after application.
# Plasmopara viticola = Plasmopara viticola / grape / leaf disc preventative; assay type: in vivo; settings: foliar, grape vine leaf disks, inoculated 1 day after application, assessed 6-8 days after application, read-out: control of Plasmopara viticola (percent disease control compared to untreated)
SMILES,inhibition at 20 ppm (Fusarium culmorum) [%],inhibition at 20 ppm [1] [%],inhibition at 20 ppm (Sclerotinia sclerotiorum) [%],inhibition at 20 ppm [2] [%],inhibition at 20 ppm (Gaeumannomyces graminis) [%],pest or weed control at 200 ppm [3] [%],inhibition at 20 ppm [4] [%],melting point [°C],inhibition at 20 ppm [5] [%],pest or weed control at 200 ppm [6] [%],inhibition at 20 ppm [7] [%],pest or weed control at 200 ppm (Pyrenophora teres) [%],inhibition at 20 ppm [8] [%],inhibition at 20 ppm (Pythium ultimum) [%],pest or weed control at 200 ppm (Plasmopara viticola) [%]
"CCn1c(-n2ncnc2N)nc2cncc(Br)c21 [Compound 15, 2-(7-bromo-1-ethylimidazo[4,5-c]pyridin-2-yl)-1,2,4-triazol-3-amine]",≥ 80,≥ 80,≥ 80,≥ 80,≥ 80,≥ 80,≥ 80,231 to 232,≥ 80,≥ 80,≥ 80,≥ 80,≥ 80,,
"C=C(OCC)c1cncc2nc(-n3ncnc3N)n(CC)c12 [Compound 74, 2-[7-(1-ethoxyethenyl)-1-ethylimidazo[4,5-c]pyridin-2-yl]-1,2,4-triazol-3-amine]",≥ 80,≥ 80,≥ 80,≥ 80,≥ 80,≥ 80,≥ 80,193 to 195,≥ 80,≥ 80,≥ 80,≥ 80,≥ 80,,
"CCn1c(-n2ncnc2N)nc2cncc(-c3ccc(OC)cc3F)c21 [Compound 96, 2-[1-ethyl-7-(2-fluoro-4-methoxyphenyl)imidazo[4,5-c]pyridin-2-yl]-1,2,4-triazol-3-amine]",≥ 80,,≥ 80,≥ 80,≥ 80,≥ 80,≥ 80,,≥ 80,≥ 80,≥ 80,≥ 80,≥ 80,≥ 80,
"CCn1c(-n2ncnc2N)nc2cncc(-c3ccc(F)cc3Cl)c21 [Compound 101, 2-[7-(2-chloro-4-fluorophenyl)-1-ethylimidazo[4,5-c]pyridin-2-yl]-1,2,4-triazol-3-amine]",≥ 80,≥ 80,≥ 80,≥ 80,≥ 80,≥ 80,≥ 80,,≥ 80,≥ 80,≥ 80,≥ 80,≥ 80,≥ 80,
"C=Cc1cncc2nc(-n3ncnc3N)n(CC)c12 [Compound 106, 2-(7-ethenyl-1-ethylimidazo[4,5-c]pyridin-2-yl)-1,2,4-triazol-3-amine]",≥ 80,≥ 80,≥ 80,≥ 80,≥ 80,,,178 to 186,≥ 80,,≥ 80,≥ 80,≥ 80,≥ 80,
"CCn1c(-n2ncnc2N)nc2cncc(C#CC3CC3)c21 [Compound 123, 2-[7-(2-cyclopropylethynyl)-1-ethylimidazo[4,5-c]pyridin-2-yl]-1,2,4-triazol-3-amine]",≥ 80,≥ 80,≥ 80,≥ 80,≥ 80,≥ 80,≥ 80,188 to 192,≥ 80,≥ 80,≥ 80,≥ 80,≥ 80,,
CCCCCCO/N=C(/C)c1cncc2nc(-n3ncnc3N)n(CC)c12 [Compound 147],≥ 80,≥ 80,≥ 80,≥ 80,,≥ 80,≥ 80,,≥ 80,≥ 80,≥ 80,≥ 80,≥ 80,,
C/C=C/CO/N=C(/C)c1cncc2nc(-n3ncnc3N)n(CC)c12 [Compound 176],≥ 80,≥ 80,≥ 80,≥ 80,≥ 80,≥ 80,,,≥ 80,,≥ 80,≥ 80,≥ 80,≥ 80,≥ 80
C=C(C)CO/N=C(/C)c1cncc2nc(-n3ncnc3N)n(CC)c12 [Compound 178],≥ 80,≥ 80,≥ 80,≥ 80,≥ 80,,,,≥ 80,≥ 80,≥ 80,≥ 80,≥ 80,,≥ 80
CCCn1c(-n2ncnc2N)nc2cncc(/C(C)=N\OC/C=C\Cl)c21 [Compound 180],≥ 80,≥ 80,≥ 80,≥ 80,≥ 80,,,,≥ 80,≥ 80,≥ 80,≥ 80,≥ 80,≥ 80,≥ 80
CCCn1c(-n2ncnc2N)nc2cncc(/C(C)=N\OC/C=C/Cl)c21 [Compound 182],≥ 80,≥ 80,≥ 80,≥ 80,,≥ 80,,,≥ 80,≥ 80,≥ 80,≥ 80,≥ 80,,≥ 80
CCCn1c(-n2ncnc2N)nc2cncc(/C(C)=N\OC/C=C(\C)Cl)c21 [Compound 184],≥ 80,≥ 80,≥ 80,≥ 80,≥ 80,≥ 80,,,≥ 80,≥ 80,≥ 80,≥ 80,≥ 80,,≥ 80

# From patent US9512120B2, “Microbicidally active imidazopyridine derivatives” (Syngenta Participations AG, priority 2013, dated 2016)
